Assay results from PubChem BioAssay (NCI).
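Protocol summary: plate cells (96-well), add compound at 5 concentrations, incubate 48 h, interpolate endpoints linearly. TGI: total growth inhibition.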

Experiments:
Experiment in all cases: growth of human tumour cells (NCI), 48 h
786-0 renal = test system: 786-0 renal
A498 renal = test system: A498 renal
A549 NSCLC = test system: A549 NSCLC
ACHN renal = test system: ACHN renal
CAKI-1 renal = test system: CAKI-1 renal
CCRF-CEM leukemia = test system: CCRF-CEM leukemia
COLO 205 colon = test system: COLO 205 colon
DLD-1 colon = test system: DLD-1 colon
DMS 114 small cell lung = test system: DMS 114 small cell lung
DMS 273 small cell lung = test system: DMS 273 small cell lung
EKVX NSCLC = test system: EKVX NSCLC
HCC-2998 colon = test system: HCC-2998 colon
HCT-116 colon = test system: HCT-116 colon
HCT-15 colon = test system: HCT-15 colon
HL-60(TB) leukemia = test system: HL-60(TB) leukemia
HOP-62 NSCLC = test system: HOP-62 NSCLC
HOP-92 NSCLC = test system: HOP-92 NSCLC
HT29 colon = test system: HT29 colon
IGROV1 ovarian = test system: IGROV1 ovarian
K-562 leukemia = test system: K-562 leukemia
KM12 colon = test system: KM12 colon
KM20L2 colon = test system: KM20L2 colon
LOX IMVI melanoma = test system: LOX IMVI melanoma
LXFL 529 NSCLC = test system: LXFL 529 NSCLC
M14 melanoma = test system: M14 melanoma
M19-MEL melanoma = test system: M19-MEL melanoma
MALME-3M melanoma = test system: MALME-3M melanoma
MOLT-4 leukemia = test system: MOLT-4 leukemia
NCI-H226 lung = test system: NCI-H226 lung
NCI-H23 lung = test system: NCI-H23 lung
NCI-H460 lung = test system: NCI-H460 lung
OVCAR-3 ovarian = test system: OVCAR-3 ovarian
OVCAR-5 ovarian = test system: OVCAR-5 ovarian
OVCAR-8 ovarian = test system: OVCAR-8 ovarian
RPMI-8226 leukemia = test system: RPMI-8226 leukemia
RXF 393 renal = test system: RXF 393 renal
RXF-631 renal = test system: RXF-631 renal
SF-268 CNS = test system: SF-268 CNS
SF-295 CNS = test system: SF-295 CNS
SF-539 CNS = test system: SF-539 CNS
SK-MEL-2 melanoma = test system: SK-MEL-2 melanoma
SK-MEL-28 melanoma = test system: SK-MEL-28 melanoma
SK-MEL-5 melanoma = test system: SK-MEL-5 melanoma
SK-OV-3 ovarian = test system: SK-OV-3 ovarian
SNB-19 CNS = test system: SNB-19 CNS
SNB-75 CNS = test system: SNB-75 CNS
SNB-78 CNS = test system: SNB-78 CNS
SW-620 colon = test system: SW-620 colon
TK-10 renal = test system: TK-10 renal
U251 CNS = test system: U251 CNS
UACC-257 melanoma = test system: UACC-257 melanoma
UACC-62 melanoma = test system: UACC-62 melanoma
UO-31 renal = test system: UO-31 renal
HOP-18 NSCLC = test system: HOP-18 NSCLC
NCI-H522 lung = test system: NCI-H522 lung
OVCAR-4 ovarian = test system: OVCAR-4 ovarian
SN12C renal = test system: SN12C renal
XF 498 CNS = test system: XF 498 CNS

O=C(N/N=C(/c1nc2ccc(Cl)cc2[nH]c1=O)C(O)c1ccc(Cl)cc1Cl)c1ccncc1 (stereo unspecified) gave a TGI (786-0 renal) of over 100 µM, a TGI (A498 renal) of over 100 µM and a TGI (A549 NSCLC) of over 100 µM. For the same compound, the TGI (ACHN renal) was over 100 µM, the TGI (CAKI-1 renal) was over 100 µM and the TGI (CCRF-CEM leukemia) was over 100 µM. For the same compound, the TGI (COLO 205 colon) was over 100 µM, the TGI (DLD-1 colon) was over 100 µM and the TGI (DMS 114 small cell lung) was over 100 µM. For the same compound, the TGI (DMS 273 small cell lung) was over 100 µM, the TGI (EKVX NSCLC) was over 100 µM and the TGI (HCC-2998 colon) was over 100 µM. For the same compound, the TGI (HCT-116 colon) was over 100 µM, the TGI (HCT-15 colon) was over 100 µM and the TGI (HL-60(TB) leukemia) was over 100 µM. For the same compound, the TGI (HOP-62 NSCLC) was over 100 µM, the TGI (HOP-92 NSCLC) was over 100 µM and the TGI (HT29 colon) was over 100 µM. For the same compound, the TGI (IGROV1 ovarian) was over 100 µM, the TGI (K-562 leukemia) was over 100 µM and the TGI (KM12 colon) was over 100 µM. The TGI (KM20L2 colon) was over 100 µM, the TGI (LOX IMVI melanoma) was over 100 µM and the TGI (LXFL 529 NSCLC) was over 100 µM. The TGI (M14 melanoma) was over 100 µM, the TGI (M19-MEL melanoma) was over 100 µM and the TGI (MALME-3M melanoma) was over 100 µM. For the same compound, the TGI (MOLT-4 leukemia) was over 100 µM, the TGI (NCI-H226 lung) was over 100 µM and the TGI (NCI-H23 lung) was over 100 µM. It also gave a TGI (NCI-H460 lung) of over 100 µM, a TGI (OVCAR-3 ovarian) of over 100 µM and a TGI (OVCAR-5 ovarian) of over 100 µM. For the same compound, the TGI (OVCAR-8 ovarian) was over 100 µM, the TGI (RPMI-8226 leukemia) was over 100 µM and the TGI (RXF 393 renal) was over 100 µM. It also gave a TGI (RXF-631 renal) of over 100 µM, a TGI (SF-268 CNS) of over 100 µM and a TGI (SF-295 CNS) of over 100 µM. For the same compound, the TGI (SF-539 CNS) was over 100 µM, the TGI (SK-MEL-2 melanoma) was over 100 µM and the TGI (SK-MEL-28 melanoma) was over 100 µM. For the same compound, the TGI (SK-MEL-5 melanoma) was over 100 µM, the TGI (SK-OV-3 ovarian) was over 100 µM and the TGI (SNB-19 CNS) was over 100 µM. It also gave a TGI (SNB-75 CNS) of over 100 µM, a TGI (SNB-78 CNS) of over 100 µM and a TGI (SW-620 colon) of over 100 µM. For the same compound, the TGI (TK-10 renal) was over 100 µM, the TGI (U251 CNS) was over 100 µM and the TGI (UACC-257 melanoma) was over 100 µM. It also gave a TGI (UACC-62 melanoma) of over 100 µM and a TGI (UO-31 renal) of over 100 µM.
With Cc1cc(C)cc(-n2c3nc(=O)n(C)c(=O)c-3nc3ccccc32)c1 the TGI (786-0 renal) was over 100 µM, the TGI (A498 renal) was over 100 µM and the TGI (A549 NSCLC) was 70.6 µM. It also gave a TGI (ACHN renal) of over 100 µM, a TGI (CAKI-1 renal) of 87.3 µM and a TGI (CCRF-CEM leukemia) of 61 µM. The TGI (COLO 205 colon) was 24.8 µM, the TGI (DMS 114 small cell lung) was 29.1 µM and the TGI (DMS 273 small cell lung) was 37.7 µM. The TGI (EKVX NSCLC) was 44.7 µM, the TGI (HCC-2998 colon) was 49.9 µM and the TGI (HCT-116 colon) was 59.8 µM. The TGI (HCT-15 colon) was 73 µM, the TGI (HOP-18 NSCLC) was over 100 µM and the TGI (HOP-62 NSCLC) was over 100 µM. It also gave a TGI (HT29 colon) of 41.3 µM, a TGI (IGROV1 ovarian) of 94.6 µM and a TGI (K-562 leukemia) of 65.3 µM. It also gave a TGI (KM12 colon) of over 100 µM, a TGI (KM20L2 colon) of 52.9 µM and a TGI (LOX IMVI melanoma) of 91.8 µM. The TGI (LXFL 529 NSCLC) was over 100 µM, the TGI (M14 melanoma) was 77.4 µM and the TGI (M19-MEL melanoma) was 18.5 µM. It also gave a TGI (MALME-3M melanoma) of 30.3 µM, a TGI (MOLT-4 leukemia) of 52.4 µM and a TGI (NCI-H226 lung) of over 100 µM. The TGI (NCI-H23 lung) was 39 µM, the TGI (NCI-H460 lung) was 94.4 µM and the TGI (NCI-H522 lung) was 44.2 µM. It also gave a TGI (OVCAR-3 ovarian) of 12.6 µM, a TGI (OVCAR-4 ovarian) of 41.5 µM and a TGI (OVCAR-5 ovarian) of 93.1 µM. For the same compound, the TGI (OVCAR-8 ovarian) was over 100 µM, the TGI (RPMI-8226 leukemia) was over 100 µM and the TGI (RXF 393 renal) was over 100 µM. The TGI (RXF-631 renal) was 80.3 µM, the TGI (SF-268 CNS) was over 100 µM and the TGI (SF-295 CNS) was over 100 µM. The TGI (SF-539 CNS) was 49.7 µM, the TGI (SK-MEL-2 melanoma) was 63.5 µM and the TGI (SK-MEL-5 melanoma) was 30.8 µM. For the same compound, the TGI (SK-OV-3 ovarian) was over 100 µM, the TGI (SN12C renal) was 76.4 µM and the TGI (SNB-19 CNS) was 50.9 µM. The TGI (SNB-75 CNS) was over 100 µM, the TGI (SNB-78 CNS) was over 100 µM and the TGI (SW-620 colon) was 40.7 µM. The TGI (TK-10 renal) was over 100 µM, the TGI (U251 CNS) was 50.5 µM and the TGI (UACC-257 melanoma) was 31.2 µM. It also gave a TGI (UACC-62 melanoma) of 31.5 µM, a TGI (UO-31 renal) of over 100 µM and a TGI (XF 498 CNS) of 81 µM.
In the case of Cc1cnc[nH]c1=O, the TGI (786-0 renal) is reported as over 100 µM, the TGI (A498 renal) is reported as over 100 µM and the TGI (A549 NSCLC) is reported as over 100 µM. For the same compound, the TGI (ACHN renal) was over 100 µM, the TGI (CAKI-1 renal) was over 100 µM and the TGI (CCRF-CEM leukemia) was over 100 µM. The TGI (COLO 205 colon) was over 100 µM, the TGI (DLD-1 colon) was over 100 µM and the TGI (DMS 114 small cell lung) was over 100 µM. For the same compound, the TGI (DMS 273 small cell lung) was over 100 µM, the TGI (EKVX NSCLC) was over 100 µM and the TGI (HCC-2998 colon) was over 100 µM. The TGI (HCT-116 colon) was over 100 µM, the TGI (HCT-15 colon) was over 100 µM and the TGI (HL-60(TB) leukemia) was over 100 µM. For the same compound, the TGI (HOP-18 NSCLC) was over 100 µM, the TGI (HOP-62 NSCLC) was over 100 µM and the TGI (HT29 colon) was over 100 µM. It also gave a TGI (IGROV1 ovarian) of over 100 µM, a TGI (K-562 leukemia) of over 100 µM and a TGI (KM12 colon) of over 100 µM. It also gave a TGI (KM20L2 colon) of over 100 µM, a TGI (LOX IMVI melanoma) of over 100 µM and a TGI (LXFL 529 NSCLC) of over 100 µM. The TGI (M14 melanoma) was over 100 µM, the TGI (M19-MEL melanoma) was over 100 µM and the TGI (MALME-3M melanoma) was over 100 µM. For the same compound, the TGI (MOLT-4 leukemia) was over 100 µM, the TGI (NCI-H226 lung) was over 100 µM and the TGI (NCI-H23 lung) was over 100 µM. The TGI (NCI-H460 lung) was over 100 µM, the TGI (NCI-H522 lung) was over 100 µM and the TGI (OVCAR-3 ovarian) was over 100 µM. It also gave a TGI (OVCAR-4 ovarian) of over 100 µM, a TGI (OVCAR-5 ovarian) of over 100 µM and a TGI (OVCAR-8 ovarian) of over 100 µM. The TGI (RPMI-8226 leukemia) was over 100 µM, the TGI (RXF-631 renal) was over 100 µM and the TGI (SF-268 CNS) was over 100 µM. The TGI (SF-295 CNS) was over 100 µM, the TGI (SK-MEL-2 melanoma) was over 100 µM and the TGI (SK-MEL-28 melanoma) was over 100 µM. It also gave a TGI (SK-MEL-5 melanoma) of over 100 µM, a TGI (SK-OV-3 ovarian) of over 100 µM and a TGI (SN12C renal) of over 100 µM. For the same compound, the TGI (SNB-19 CNS) was over 100 µM, the TGI (SNB-75 CNS) was over 100 µM and the TGI (SNB-78 CNS) was over 100 µM. It also gave a TGI (SW-620 colon) of over 100 µM, a TGI (TK-10 renal) of over 100 µM and a TGI (U251 CNS) of over 100 µM. It also gave a TGI (UACC-257 melanoma) of over 100 µM, a TGI (UACC-62 melanoma) of over 100 µM and a TGI (UO-31 renal) of over 100 µM.
